Data: patent publication US12187758B2 (ROME Therapeutics, Inc., priority 2022, dated 2025)

How the values were obtained:
Format in all cases: cell-based
[1] = test system: SDH-A (succinate dehydrogenase-A); assay: Mitochondria toxicity assay with PC3 cells, in-cell ELISA SDH-A; conditions: 5 days treatment
In short: (§1)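 This in-cell ELISA was run on fixed, permeabilized PC3 cells after 5-day exposure to titrated compound, with cytotoxicity measured on a duplicate plate. Results are reported as categories A (<1.0 μM) to E (>100.0 μM).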

[2] = Mitochondria toxicity assay with PC3 cells, in-cell ELISA COX-1; conditions: 5 days treatment
In short: as §1

[3] = test system: PC3 cells; assay: Mitochondria toxicity assay with PC3 cells, cytotoxicity (Cell Titer Glo); conditions: Homo sapiens, PC-3, 120 h, 5 days treatment
In short: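 Cytotoxicity reported in μM bins, A <1.0 through E >100.0. Measured via Cell Titer Glo luminescence (30 min, room temperature) after 5-day dose-titration treatment of PC3 cells, grown in F-12K/10% FBS, at 37° C, 5% CO2.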

[4] = test system: THP1-Dual KO-TREX1 cells; assay: THP1 TREX1 KO inhibition assay (type 1 interferon response); conditions: Homo sapiens, 144 h, type 1 interferon (QUANTI-LUC), 1 μM 5-aza-2′-deoxycytidine, six days
Method: Exemplary compounds were tested for their ability to alter the type 1 interferon response in THP1 Dual TREX1 KG cells treated with 5-aza-2′-deoxycytidine. Assay procedures and results are described below.
THP1 Dual TREX1 KG cells were purchased from Invivogen. The THP1-Dual™ KO-TREX1 cells were cultured in RPMI 1640, 10% heat-inactivated fetal bovine serum, 25 mM HEPES, 10 μg/mL blasticidin, and 100 μg/mL zeocin. THP1-Dual™ KO-TREX1 cells were treated with a dose titration of a test compound alone or in the presence of 1 μM 5-aza-2′-deoxycytidine (Sigma-Aldrich, cat #189825). Type 1 Interferon and cell viability were assessed after six days of treatment.
Stock solution of the test compound was prepared in DMSO followed by a three-fold dilution in DMSO. Additional 50× dilution was prepared in cell culture media for each dilution. 10 μL of diluted test compound was then added to a 96-well plate.
THP1-Dual™ KO-TREX1 cells were treated with either 1×PBS or 1 μM 5-aza-2′-deoxycytidine. […] of the THP1-Dual™ KO-TREX1 cells from either treatment were added to each well of the 96-well plate containing the test compound titration at 50,000 cells/well. Cells were incubated at 37° C., 5% CO2 in a humidified incubator for six days. Cells treated with 1 μM 5-aza-2′-deoxycytidine were added at the same density as above and incubated at 37° C., 5% CO2 in a humidified incubator for six days. On day six, 25 μL of cell supernatant was transferred to a 96-well white-walled plate, followed by addition to each well of 50 μL of QUANTI-LUC solution containing stabilizer. Luminescence was detected on a plate reader according to the manufacturer's instructions.
The remaining cells were assessed for cell viability by adding 25 μL of CellTiter-Glo (Promega, G9683) solution to each well, and being placed on a shaker for 10 minutes at room temperature. Luminescence was detected on a plate reader, according to the manufacturer's instructions.
In the tables “A” represents values≤0.050 μM; “B” represents values from >0.050 μM to ≤0.100 μM; “C” represents values from >0.100 μM to ≤0.250 μM; “D” represents values from >0.250 μM to ≤1 μM; “E” represents values>1 μM; and “NT”=not tested: […]

Structure (SMILES)	IC50 [4] [nM]	IC50 [1] [µM]	IC50 [2] [µM]	IC50 [3] [µM]
CC[C@]1(CO)O[C@@H](n2cnc3c(N)nc(F)nc32)C[C@@H]1O [Compound 64, (2R,3S,5R)-5-(6-amino-2-fluoro-9H-purin-9-yl)-2-ethyl-2-(hydroxymethyl)tetrahydrofuran-3-ol]	> 1000	< 1	< 1	< 1
Nc1nc(=O)n([C@H]2C[C@H](O)[C@](CO)(C(F)F)O2)cc1F [Compound 65, 4-amino-1-[(2R,4S,5R)-5-(difluoromethyl)-4-hydroxy-5-(hydroxymethyl)oxolan-2-yl]-5-fluoropyrimidin-2-one]	250 to 1000	> 100	> 100	> 100
Nc1nc(=O)n([C@H]2C[C@H](O)[C@](CO)(C(F)(F)F)O2)cc1F [Compound 66, 4-amino-5-fluoro-1-((2R,4S,5R)-4-hydroxy-5-(hydroxymethyl)-5-(trifluoromethyl)tetrahydrofuran-2-yl)pyrimidin-2(1H)-one]	> 1000	> 100	> 100	> 100
CC[C@]1(CO)O[C@@H](n2cnc3c(=O)[nH]c(N)nc32)[C@@H](F)[C@@H]1O [Compound 68, 2-amino-9-((2R,3S,4R,5R)-5-ethyl-3-fluoro-4-hydroxy-5-(hydroxymethyl)tetrahydrofuran-2-yl)-1,9-dihydro-6H-purin-6-one]	> 1000	10 to 50	10 to 50	10 to 50
C=C[C@]1(CO)O[C@@H](n2cc(F)c(N)nc2=O)C[C@@H]1O [Compound 74, 4-amino-5-fluoro-1-((2R,4S,5R)-4-hydroxy-5-(hydroxymethyl)-5-vinyltetrahydrofuran-2-yl)pyrimidin-2(1H)-one]	> 1000	> 100	> 100	> 100
C=C[C@]1(CO)O[C@@H](n2cc(F)c(N)nc2=O)[C@@H](O)[C@@H]1O [Compound 75, 4-amino-1-((2R,3S,4S,5R)-3,4-dihydroxy-5-(hydroxymethyl)-5-vinyltetrahydrofuran-2-yl)-5-fluoropyrimidin-2(1H)-one]	> 1000	> 100	> 100	> 100
C=C[C@]1(CO)O[C@@H](n2cnc3c(N)nc(F)nc32)[C@@H](F)[C@@H]1O [Compound 80, (2R,3R,4S,5R)-5-(6-amino-2-fluoropurin-9-yl)-2-ethenyl-4-fluoro-2-(hydroxymethyl)oxolan-3-ol]	> 1000	> 100	50 to 100	> 100
CC[C@]1(CO)O[C@@H](n2cnc3c(N)nc(F)nc32)[C@@H](F)[C@@H]1O [Compound 81, (2R,3R,4S,5R)-5-(6-amino-2-fluoropurin-9-yl)-2-ethyl-4-fluoro-2-(hydroxymethyl)oxolan-3-ol]	> 1000	> 100	> 100	> 100
CC[C@]1(CO)O[C@@H](n2cc(F)c(N)nc2=O)C[C@@H]1O [Compound 82, 4-amino-1-((2R,4S,5R)-5-ethyl-4-hydroxy-5-(hydroxymethyl)-tetrahydrofuran-2-yl)-5-fluoropyrimidin-2(1H)-one]	> 1000	> 100	> 100	> 100
[N-]=[N+]=N[C@]1(CO)O[C@@H](c2ccc3c(N)ncnn23)C[C@@H]1O [Compound 92, (2R,3S,5R)-5-(4-aminopyrrolo[2,1-f][1,2,4]triazin-7-yl)-2-azido-2-(hydroxymethyl) tetrahydrofuran-3-ol]	> 1000	1 to 10	< 1	1 to 10
C[C@]1(CO)O[C@@H](n2ccc(N)nc2=O)C[C@@H]1O [Compound 106, 4-amino-1-((2R,4S,5R)-4-hydroxy-5-(hydroxymethyl)-5-methyltetrahydrofuran-2-yl)pyrimidin-2(1H)-one]	250 to 1000	< 1	< 1	< 1
C#C[C@]1(CO)O[C@@H](n2cc(F)c(N)nc2=O)C[C@@H]1O [Compound 107, 4-amino-1-((2R,4S,5R)-5-ethynyl-4-hydroxy-5-(hydroxymethyl)tetrahydro-furan-2-yl)-5-fluoropyrimidin-2(1H)-one]	> 1000	> 100	> 100	> 100
Nc1ccn([C@H]2C[C@H](O)[C@](CO)(C(F)F)O2)c(=O)n1 [Compound 110, 4-amino-1-((2R,4S,5R)-5-(difluoromethyl)-4-hydroxy-5-(hydroxymethyl)-tetrahydrofuran-2-yl)pyrimidin-2(1H)-one]	> 1000	> 100	> 100	> 100
C#C[C@]1(CO)O[C@@H](n2cc(F)c(N)nc2=O)[C@@H](F)[C@@H]1O [Compound 112, 4-amino-1-((2R,3S,4R,5R)-5-ethynyl-3-fluoro-4-hydroxy-5-(hydroxymethyl)tetrahydrofuran-2-yl)-5-fluoropyrimidin-2(1H)-one]	> 1000	< 1	< 1	> 100

Now from value to compound, other results behind:

IC50 [4] [nM]	Structure (SMILES)	IC50 [1] [µM]	IC50 [2] [µM]	IC50 [3] [µM]
> 1000	C=C[C@]1(CO)O[C@@H](n2cnc3c(=O)[nH]c(N)nc32)[C@@H](F)[C@@H]1O [Compound 63, 2-amino-9-[(2R,3S,4R,5R)-5-ethenyl-3-fluoro-4-hydroxy-5-(hydroxymethyl)oxolan-2-yl]-1H-purin-6-one]	10 to 50	10 to 50	10 to 50
> 1000	C=C[C@]1(CO)O[C@@H](n2cnc3c(=O)[nH]c(N)nc32)C[C@@H]1O [Compound 69]	1 to 10	1 to 10	1 to 10
> 1000	Nc1nc2c(ncn2[C@@H]2O[C@@](CO)(CCl)[C@@H](O)[C@@H]2F)c(=O)[nH]1 [Compound 70, 2-amino-9-((2R,3S,4R,5R)-5-(chloromethyl)-3-fluoro-4-hydroxy-5-(hydroxymethyl)-tetrahydrofuran-2-yl)-1,9-dihydro-6H-purin-6-one]	10 to 50	10 to 50	10 to 50
> 1000	C=C[C@]1(CO)O[C@@H](n2cc(F)c(N)nc2=O)[C@@H](F)[C@@H]1O [Compound 76, 4-amino-1-[(2R,3S,4R,5R)-5-ethenyl-3-fluoro-4-hydroxy-5-(hydroxymethyl)oxolan-2-yl]-5-fluoropyrimidin-2-one]	1 to 10	1 to 10	> 100
> 1000	CC[C@]1(CO)O[C@@H](n2cc(F)c(N)nc2=O)[C@@H](O)[C@@H]1O [Compound 78, 4-amino-1-((2R,3S,4S,5R)-5-ethyl-3,4-dihydroxy-5-(hydroxymethyl)tetrahydrofuran-2-yl)-5-fluoropyrimidin-2(1H)-one]	> 100	> 100	> 100
250 to 1000	[N-]=[N+]=N[C@]1(CO)O[C@@H](n2cnc3c(=O)[nH]c(N)nc32)C[C@@H]1O [Compound 108, 2-amino-9-((2R,4S,5R)-5-azido-4-hydroxy-5-(hydroxymethyl)tetrahydro-furan-2-yl)-1,9-dihydro-6H-purin-6-one]	10 to 50	1 to 10	1 to 10
> 1000	C=C[C@]1(CO)O[C@@H](n2cnc3c(N)nc(F)nc32)C[C@@H]1O [Compound 109, (2R,3S,5R)-5-(6-amino-2-fluoro-9H-purin-9-yl)-2-(hydroxymethyl)-2-vinyltetrahydrofuran-3-ol]	1 to 10	1 to 10	1 to 10
50 to 100	Nc1ccn([C@@H]2O[C@H](CO)[C@@H](O)C2(F)F)c(=O)n1 [Compound 111, 4-amino-1-((2R,4R,5R)-3,3-difluoro-4-hydroxy-5-(hydroxymethyl)tetrahydro-furan-2-yl)pyrimidin-2(1H)-one]	< 1	< 1	< 1
